Where two headings read alike, the source gives them in different places.
Biological target: muscarinic M3 receptor (Homo sapiens (Human), UniProt P20309)
Type: binding

| SMILES | ability to inhibit [3H]QNB binding at muscarinic sites | ability to inhibit [3H]QNB binding at muscarinic sites (human clonal line TE671/RD) |
| --- | --- | --- |
| O=C(Nc1ccccc1)OC1C2CCN(CC2)C1Cc1cccnc1 (centres unmarked) [Compound 2, 2-((3-pyridinyl)methyl)-1-azabicyclo[2.2.2]oct-3-yl N-phenylcarbamate] | None of the compounds was able to inhibit [^3H]QNB binding | – |
| O=C(Nc1ccc(Br)cc1)OC1C2CCN(CC2)C1Cc1cccnc1 (centres unmarked) [Compound 1, 2-((3-pyridinyl)methyl)-1-azabicyclo[2.2.2]oct-3-yl N-(4-bromophenyl)carbamate] | None of the compounds was able to inhibit [^3H]QNB binding | – |
| O=C(NC1C2CCN(CC2)C1Cc1cccnc1)c1cc2ccccc2o1 (centres unmarked) [Compound 9, N-(2-((3-pyridinyl)methyl)-1-azabicyclo[2.2.2]oct-3-yl)benzofuran-2-carboxamide] | – | None of the compounds was able to inhibit [^3H]QNB binding |
| O=C(NC1C2CCN(CC2)C1Cc1cccnc1)c1ccc(Sc2ccccc2)cc1 (centres unmarked) [Compound 11] | – | None of the compounds was able to inhibit [^3H]QNB binding |
| COc1ccc(NC(=O)OC2C3CCN(CC3)C2Cc2cccnc2)cc1 (centres unmarked) [Compound 4, 2-((3-pyridinyl)methyl)-1-azabicyclo[2.2.2]oct-3-yl N-(4-methoxyphenyl)carbamate] | None of the compounds was able to inhibit [^3H]QNB binding | – |
